Read-outs that look alike come from different tables or passages of the source. Peptide text beside a SMILES is read from it. * marks the point of attachment. Cbz = O=C(OCc1ccccc1)*; Boc = CC(C)(C)OC(=O)*; OBn = c1ccc(CO*)cc1; OtBu = CC(C)(C)O*
Legend:
[1] = biological target: T1, MDR1 (Homo sapiens, UniProt P08183)
Source text: (§5) The second assay is based on the measurement of fluorescent dye uptake into intact cells. […] These hydrophobic dye esters are non-fluorescent outside the cell are cleaved by intracellular esterases into hydrophilic fluorescent free acids.

[2] = system: multidrug-resistant human tumor cell lines; experiment: Enhancement of cytotoxicity of drugs in multidrug-resistant human tumor cell lines; format: cell-based; settings: K562 MDR and KBV1 sublines, FIGS. 10-11
Description: (§1) NIH 3T3 cells were cultured under standard conditions in D-MEM medium. MDR1-transfected cells (NIH MDR1 G185) were prepared and characterized for their drug-resistant properties as described (Ambdukar et al. Proc. Natl. Acad. Sci. USA 89:8472-8476, 1992; Bruggemann et al. J. Biol. Chem. 267:21020-21026, 1992; Sarkadi et al. 1992 supra). Before each experiment the cells were trypsinized, then washed and stored in D-MEM medium at 37° C. KBV1 (MDR1^+) and KB3 (MDR1^-) human tumor cells were also cultured in D-MEM, which K562 human tumor cells were grown in RPMI medium, supplemented with 10% FCS.
Another method for assessing the ability of Reversins to inhibit drug resistance is to measure the cytotoxicity of drugs in multidrug-resistant human tumor cell lines. Since MDR1 normally lowers the concentration of cytotoxic agents to subtoxic concentrations by extruding them from the cell, inhibition of MDR1 would be expected to enhance cytotoxicity.
In these studies, adriamycin, vincristine, and vinblastine, in originally ineffective concentrations, become effectively cytotoxic in the presence of 1-10 μg/ml of Reversins 121 or 205. FIGS. 10A and 10B present such an experiment for Reversin 205 using K562 human erythroblastoid tumor cells and their adriamycin-selected multidrug-resistant subline. […]

[3] = biological target: T1, MDR1; remark: listed apart in the source
[4] = In vivo acute and subacute toxicity; set-up: species or system rat; settings: rats, two-week follow-up
Description: The safety of Reversins for human administration can be confirmed in appropriate animal models. For example, the in vivo acute and subacute toxicity of Reversins was examined in laboratory rats. Reversins 121 and 205 solutions were prepared and administered as follows. Type A solutions contained 50 μg/ml Reversin 121 or 205 in 20% ethanol in physiological saline. Type B solutions contained 1 mg/ml in glycerol, containing 10% ethanol. Type A solutions (0.5 ml) were administered intravenously to three laboratory rats weighing 200-250 g each (about 100-125 μg/kg) twice daily for 3 days. Type B solutions (0.5 ml) were given to similar rats (2-2.5 mg/kg) by intraperitoneal injection, twice daily for three days. Control rats received the same solutions without the Reversins.

[5] = biological target: T1, MDR1; experiment: Flow-cytometric fluorescent dye uptake in multidrug-resistant leukocytes of a leukemic patient; format: cell-based; set-up: endogenous in cells; host or cells: white blood cells isolated from the blood of a leukemic patient; settings: 5 μM, 37° C., 10 minutes, FIG. 8
Description: Fluorescence measurements were done in 60 sec scanning periods using a Cytoronabsolut instrument (Ortho Diagnostic Systems, NJ). The excitation was set to 488 nm. Green fluorescence was measured with a filter with a range of 515-548 nm, while red fluorescence was measured above 620 nm.
By using the some fluorescent dye extrusion assay described above the in vitro effects of Reversins on the multidrug-resistant leukocytes of a leukemic patient were studied. Cells were isolated by withdrawing blood from the patient, and isolating white blood cells by centrifugation. Cells can be isolated from other types of tumors by biopsy. A flow cytometer was used to measure fluorescent dye loading of individual cells, which had been previously shown to express MDR1, in the absence or presence of Reversin 205 (FIG. 8). The uptake of fluorescent dye under these conditions models the uptake of cytotoxic drugs into the tumor cells. Fluorescent dye uptake was measured at 37° C. for 10 minutes. […] Further details for the method are provided by Hollo et al., supra.

[6] = system: control P388 cells; experiment: Mouse P388 leukemia model, survival; format: in vivo; settings: 1 mg/kg/day for 6 days, mice injected with control P388 cells
Source text: (§2) In vivo animal studies for the effectiveness of Reversins can be conducted using any suitable animal model system known to those skilled in the art. One example of an appropriate system is the mouse P388 leukemia model system (Tsurouo et al., supra). This animal model is widely accepted for testing the effect of cytotoxic antileukemic agents or response-modifier compounds.
(§3) Inbred (DBA×black F1) mice received 10^6 P388 leukemia cells by intraperitoneal injection. The survival of the mice was followed. The mice were injected with control P388 cells, as well as with P388 cells that had been selected under drug exposure. Drug exposure induced over-expression of the MDR1 protein (P388-MDR cells).
(§4) The mice injected with the P388 cells were treated with doxorobicin (adriamycin) in a dose of 1 mg/kg/day for 6 days after the injection of the P388 cells. […] Reversin can be administered to the animals in a dose of 2 mg/kg, a level which has no toxic effect on the control animals, as discussed above.

[7] = system: P388-MDR cells; experiment: Mouse P388-MDR leukemia model, survival; format: in vivo; settings: 1 mg/kg/day for 6 days, mice injected with P388-MDR cells
Source text: as §2, §3, §4

[8] = system: control NIH 3T3 cells; experiment: Fluorescent dye accumulation in fibroblasts which do not overexpress MDR1; format: cell-based, mouse; settings: fibroblasts which do not overexpress MDR1, FIG. 6
Description: NIH 3T3 cells were cultured under standard conditions in D-MEM medium. […] Before each experiment the cells were trypsinized, then washed and stored in D-MEM medium at 37° C. KBV1 (MDR1^+) and KB3 (MDR1^-) human tumor cells were also cultured in D-MEM, which K562 human tumor cells were grown in RPMI medium, supplemented with 10% FCS.
Human MDR1-transfected mouse fibroblasts and MDR1-expressing human tumor cells actively extrude the AM forms of several fluorescent indicators, lowering the level of intracellular fluorescence in cells with active multidrug transport.
Dye uptake was measured by incubating 2×10^6 cells/ml D-MEM medium at 37° C. in the presence of 0.5 μM Fura-2 AM (added in 5 mM stock solution in DMSO), then rapidly spinning the cells (15 sec, 12,000×g), and rinsing the pellet with HPM1 medium (containing 120 mM NaCl, 5 mM kcl, 0.4 mM MgCl2, 0.04 mM CaCl2, 10 mM HEPES-Na (pH 7.4), 10 mM NaHCO3, 10 mM glucose, and 5 mM Na2 HPO4). The cells were resuspended in 2 ml HPM1 and fluorescence was measured with rapid stirring in a Hitachi F-4000 fluorescent spectrophotometer. The excitation wavelength was 340 nm, and emission was measured at 410 nm. Maximum fluorescence and dye concentration were measured after the addition of 0.5% Triton X-100 and 2 mM CaCl2 to the medium. The dye concentration was calibrated based on the measurements of free acid dye fluorescence in the same instrument under identical conditions.

[9] = system: KBV1 cells; experiment: Cytotoxicity of Reversin alone in multidrug-resistant KBV1 cells; format: cell-based, human; settings: MDR1-expressing cells, FIG. 11(A)
Description: as §1
In these studies, adriamycin, vincristine, and vinblastine, in originally ineffective concentrations, become effectively cytotoxic in the presence of 1-10 μg/ml of Reversins 121 or 205. FIGS. 10A and 10B present such an experiment for Reversin 205 using K562 human erythroblastoid tumor cells and their adriamycin-selected multidrug-resistant subline. FIGS. 11A and 11B are similar experiments with the […] tumor cells KB3 and KBV1, the latter being a multidrug resistant subline. […] Such a collateral toxic effect (which may be due to the ATP-consuming futile functioning of the drug transporter) can be greatly advantageous in treating drug-resistant tumors.

[10] = biological target: T1, MDR1; experiment: Fluorescent dye (Fura-2 AM) extrusion assay in MDR1-transfected NIH 3T3 fibroblasts; settings: MDR1-expressing fibroblasts, FIG. 6
Source text: as §5

[11] = intraperitoneal, 2-2.5 mg/kg twice daily for three days
[12] = intravenous, about 100-125 μg/kg twice daily for 3 days

T1 sequence (P08183 whole entry): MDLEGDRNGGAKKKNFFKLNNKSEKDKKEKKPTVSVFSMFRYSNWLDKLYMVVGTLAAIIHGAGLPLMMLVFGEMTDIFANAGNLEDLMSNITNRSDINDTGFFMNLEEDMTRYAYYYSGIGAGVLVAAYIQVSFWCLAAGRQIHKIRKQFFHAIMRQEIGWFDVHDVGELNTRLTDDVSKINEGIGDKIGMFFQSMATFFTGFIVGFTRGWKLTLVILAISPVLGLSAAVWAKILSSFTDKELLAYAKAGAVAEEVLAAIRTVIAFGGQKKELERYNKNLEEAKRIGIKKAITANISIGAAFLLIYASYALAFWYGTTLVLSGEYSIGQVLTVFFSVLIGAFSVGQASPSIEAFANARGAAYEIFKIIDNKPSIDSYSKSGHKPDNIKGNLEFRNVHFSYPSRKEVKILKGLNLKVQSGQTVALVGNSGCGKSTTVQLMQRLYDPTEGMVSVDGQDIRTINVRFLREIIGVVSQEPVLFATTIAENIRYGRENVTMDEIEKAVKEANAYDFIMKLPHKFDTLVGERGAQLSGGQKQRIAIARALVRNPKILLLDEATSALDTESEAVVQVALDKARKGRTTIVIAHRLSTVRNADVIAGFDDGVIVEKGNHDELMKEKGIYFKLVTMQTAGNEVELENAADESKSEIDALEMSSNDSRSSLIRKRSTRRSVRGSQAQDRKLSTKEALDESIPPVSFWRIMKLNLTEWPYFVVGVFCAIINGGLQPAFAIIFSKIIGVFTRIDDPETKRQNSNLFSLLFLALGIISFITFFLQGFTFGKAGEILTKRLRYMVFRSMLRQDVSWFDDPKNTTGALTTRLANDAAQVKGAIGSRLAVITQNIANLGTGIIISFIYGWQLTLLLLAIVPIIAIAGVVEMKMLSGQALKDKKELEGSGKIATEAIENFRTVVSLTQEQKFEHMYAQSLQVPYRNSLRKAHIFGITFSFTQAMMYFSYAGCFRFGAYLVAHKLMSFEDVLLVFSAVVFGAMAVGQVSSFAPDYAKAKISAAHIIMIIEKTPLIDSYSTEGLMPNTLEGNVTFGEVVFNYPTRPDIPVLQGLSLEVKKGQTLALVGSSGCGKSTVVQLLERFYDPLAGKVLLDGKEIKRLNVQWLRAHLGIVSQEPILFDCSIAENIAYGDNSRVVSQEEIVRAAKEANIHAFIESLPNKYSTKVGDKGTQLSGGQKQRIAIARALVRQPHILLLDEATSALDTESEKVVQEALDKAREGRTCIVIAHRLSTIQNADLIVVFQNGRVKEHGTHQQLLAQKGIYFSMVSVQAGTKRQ

COC(=O)[C@H](CCCCNC(=O)[C@H](CCC(=O)OCc1ccccc1)NC(=O)OC(C)(C)C)NC(=O)[C@H](CCC(=O)OCc1ccccc1)NC(=O)OC(C)(C)C [Reversin 205, N^α, N^ε -bis[BOC-Glu(OBzl)]-Lys-OMe]
inhibition of Fura2-AM dye extrusion [1]: inhibit this dye extrusion
Reversin concentration at which originally ineffective adriamycin, vincristine and vinblastine become effectively cytotoxic [2]: 1 to 10 µg/mL
concentration giving strong inhibition of the MDR1-ATPase [3]: above 1 μM
half-maximal activating concentration (Ka) of MDR1-ATPase [3]: about 30 nM
stimulation of MDR1-ATPase [3]: greatly stimulated
acute or subacute toxicity [4, 11]: no acute or subacute toxicity
acute or subacute toxicity [4, 12]: no acute or subacute toxicity
dye extrusion by MDR1 [5]: blocked dye extrusion
fluorescent dye uptake [5]: significantly increased

COc1cccc2c1C(=O)c1c(O)c3c(c(O)c1C2=O)C[C@@](O)(C(=O)CO)C[C@@H]3O[C@H]1C[C@H](N)[C@H](O)[C@H](C)O1 [adriamycin]
survival time [6]: > 30 days
prolongation of lifetime [7]: did not significantly prolong

COc1ccc(CCN(C)CCCC(C#N)(c2ccc(OC)c(OC)c2)C(C)C)cc1OC (centres unmarked) [verapamil]
effect on dye accumulation [8]: no effect

CC[C@]1(O)C[C@H]2CN(CCc3c([nH]c4ccccc34)[C@@](C(=O)OC)(c3cc4c(cc3OC)N(C=O)[C@H]3[C@@](O)(C(=O)OC)[C@H](OC(C)=O)[C@]5(CC)C=CCN6CC[C@]43[C@@H]65)C2)C1 [vincristine, reference compound]
block of MDR1-specific dye-AM extrusion [1]: blocked
inhibition of Fura2-AM dye extrusion [1]: inhibit this dye extrusion
effect on dye accumulation [8]: no effect
stimulation of MDR1-ATPase [3]: stimulated

C=C[C@H]1C[N@@]2CC[C@H]1C[C@H]2[C@H](O)c1ccnc2ccc(OC)cc12 [quinine, reference compound]
stimulation of MDR1-ATPase [3]: stimulated

CC(C)(C)OC(=O)N[C@@H](CC(=O)OCc1ccccc1)C(=O)N[C@@H](CCCCNC(=O)OCc1ccccc1)C(=O)OC(C)(C)C [Reversin 121, BOC-Asp(OBzl)-Lys(Z)-OtBu] (Boc-Asp(OBn)-Lys(Cbz)-OtBu)
inhibition of Fura2-AM dye extrusion [1]: inhibit this dye extrusion
Reversin concentration at which originally ineffective adriamycin, vincristine and vinblastine become effectively cytotoxic [2]: 1 to 10 µg/mL
cytotoxicity without vinblastine [9]: cytotoxic
half-maximal activating concentration (Ka) of MDR1-ATPase [3]: approximately 60 nM
stimulation of MDR1-ATPase [3]: greatly stimulated
acute or subacute toxicity [4, 11]: no acute or subacute toxicity
acute or subacute toxicity [4, 12]: no acute or subacute toxicity

[Na+].[Na+].[Na+].[O]=[V]([O-])([O-])[O-] [sodium orthovanadate]
effect on dye accumulation [8]: no effect
block of MDR1-specific dye-AM extrusion [10]: blocked
